pIC50, pKd: −log10 of the molar value. Active and inactive are the calls of the source. The calls are words filed in the database; no cut-off is given here. Numbered stars: 1 amine (or outer) side, 2 acyl side, 3 side chain; on linkers, the order of the positions; unused ones are H or OH. Bridge positions count the residues as written; N and C are the ends. Square brackets hold non-standard residues; d marks the D form. Peptide text beside a SMILES is read from it. Nle(6-ylidene) = O=C([C@H](CCCC=[*:3])N[*:1])[*:2]; Phe(4-Br) = N[C@@H](Cc1ccc(Br)cc1)C(=O)O; Phe(4-Cl) = N[C@@H](Cc1ccc(Cl)cc1)C(=O)O; Phe(4-F) = N[C@@H](Cc1ccc(F)cc1)C(=O)O; Phe(4-I) = N[C@@H](Cc1ccc(I)cc1)C(=O)O
Legend:
Tubulin [1] = experiment: Binding affinity to tubulin (unknown origin) assessed as binding constant by SPR analysis; type: protein-complex assay, Homo sapiens
MCF7 [2] = experiment: Cytotoxicity against human MCF7 cells assessed as reduction in cell viability incubated for 24 hrs by MTT assay; type: functional, cell-based; settings: MCF7, 24 h
Tubulin (Homo sapiens) [3] = molecular target: T1, Tubulin (Homo sapiens) (UniProt P68371+Q9H4B7+P0DPH7+P68366+Q13509+Q71U36+P04350+Q3ZCM7+P07437+P68363+Q9BQE3+Q6PEY2+Q13885+Q9BVA1+Q9BUF5); experiment: Binding affinity to tubulin (unknown origin) assessed as association constant by SPR analysis; type: protein-complex assay
MCF7 [4] = experiment: Induction of apoptosis in human MCF7 cells assessed as necrotic cells by annexin V FITC and propidium iodide staining based flow cytometry (reference value: 0 %); type: functional
MCF7 [5] = experiment: Induction of apoptosis in human MCF7 cells assessed as viable cells by annexin V FITC and propidium iodide staining based flow cytometry (reference value: 100 %); type: functional
MCF7 [6] = experiment: Induction of apoptosis in human MCF7 cells assessed as late apoptotic cells by annexin V FITC and propidium iodide staining based flow cytometry (reference value: 0 %); type: functional
Tubulin [7] = experiment: Binding affinity to tubulin (unknown origin) assessed as binding constant by ITC analysis; type: protein-complex assay, Homo sapiens
MCF7 [8] = experiment: Drug uptake in human MCF7 cells at 4 uM incubated for 24 hrs by fluorescence microscopic analysis; type: functional, cell-based
Tubulin (Homo sapiens) [9] = molecular target: T1, Tubulin (Homo sapiens); experiment: Induction of microtubule depolymerization in human MCF7 cells; type: cell-based
MCF7 [10] = experiment: Induction of apoptosis in human MCF7 cells assessed as upregulation of p53 protein expression by Western blot analysis; type: functional, cell-based
[11] = Metabolic stability in human plasma at 200 uM incubated for 24 hrs by MALDI-MS analysis; type: ADME, cell-free
[12] = Drug uptake in human MCF7 cells at 4 uM incubated for 24 hrs by flow cytometry analysis; type: ADME, cell-based; settings: mcf7, 24 h
MCF7 [13] = experiment: Induction of cell cycle arrest in human MCF7 cells assessed as accumulation of cells at G2/M phase; type: functional, cell-based
MCF7 [14] = experiment: Induction of apoptosis in human MCF7 cells assessed as upregulation of BubR1 protein expression by Western blot analysis; type: functional, cell-based
MCF7 [15] = experiment: Induction of apoptosis in human MCF7 cells assessed as upregulation of Mad2 protein expression by Western blot analysis; type: functional, cell-based
MCF7 [16] = experiment: Induction of apoptosis in human MCF7 cells assessed as early apoptotic cells by annexin V FITC and propidium iodide staining based flow cytometry (reference value: 0 %); type: functional
MCF7 [17] = experiment: Induction of apoptosis in human MCF7 cells assessed as upregulation of p21 protein expression by Western blot analysis; type: functional, cell-based
B16-F10 [18] = experiment: Antitumor activity against mouse B16F10 cells implanted in C57BL/6J mouse assessed as tumor cell damage at 5 mg/kg, ip administered for 14 days by caliper method; type: functional, organism-based; settings: time 14.0 day
MCF7 [19] = experiment: Antitumor activity in human MCF7 cells cultured as 3D spheroids assessed as decrease in spheroid volume at 4 uM measured up to 7 days by inverted microscopic analysis; type: functional, cell-based; settings: time <= 7.0 day
B16-F10 [20] = experiment: Antitumor activity against mouse B16F10 cells implanted in C57BL/6J mouse assessed as blood vessels damage at 5 mg/kg, ip administered for 14 days by caliper method; type: functional, organism-based; settings: time 14.0 day
B16-F10 [21] = experiment: Antitumor activity against mouse B16F10 cells implanted in C57BL/6J mouse assessed as tumor muscle damage at 5 mg/kg, ip administered for 14 days by caliper method; type: functional, organism-based; settings: time 14.0 day
B16-F10 [22] = experiment: Antitumor activity against mouse B16-F10 cells implanted in C57BL/6J mouse assessed as reduction in tumor size at 5 mg/kg, ip administered for 14 days by caliper method; type: functional, organism-based; settings: time 14.0 day
Tubulin (Homo sapiens) [23] = molecular target: T1, Tubulin (Homo sapiens); experiment: Inhibition of tubulin polymerization (unknown origin) at 10 uM by turbidity assay; type: protein-complex assay
Tubulin [24] = experiment: Binding affinity to tubulin (unknown origin) assessed as binding constant by tryptophan quenching analysis; type: protein-complex assay, Homo sapiens
[25] = Toxicity in C57BL/6J mouse implanted with B16F10 cells assessed as change in body weight at 5 mg/kg, ip administered for 14 days; type: organism-based, B16-F10; settings: in vivo, 336 h, time 14 day
Tubulin (Homo sapiens) [26] = molecular target: T1, Tubulin (Homo sapiens); experiment: Binding affinity to microtubule in human MCF7 cells at 20 uM after 2 hrs by Hoechst 33258 staining based fluorescence microscopy analysis; type: cell-based
Tubulin (Homo sapiens) [27] = molecular target: T1, Tubulin (Homo sapiens); experiment: Inhibition of tubulin polymerization (unknown origin) at 10 uM by DAPI staining based assay; type: protein-complex assay

Row | SMILES | pKd (Tubulin [1]) | pIC50 (MCF7 [2]) | Ka (Tubulin (Homo sapiens) [3]) | Activity (MCF7 [4]) [%] | Activity (MCF7 [5]) [%] | Activity (MCF7 [6]) [%] | Ka (Tubulin [7]) [M⁻¹] | Activity (MCF7 [8]) | Activity (Tubulin (Homo sapiens) [9]) | Activity (MCF7 [10]) | Stability [11] | Drug uptake [12] | Activity (MCF7 [13]) | Activity (MCF7 [14]) | Activity (MCF7 [15]) | Activity (MCF7 [16]) [%] | Activity (MCF7 [17]) | also measured
1 | CC(=O)N[C@@H](Cc1ccccc1)C(=O)N[C@@H](CCCNC(=N)N)C(=O)N[C@@H](CCCNC(=N)N)C(=O)N[C@@H](CCCCN)C(=O)N[C@@H](C)C(=O)N[C@@H](Cc1ccc(Cl)cc1)C(=O)N[C@H]1CCC/C=C\CCC[C@@H](C(=O)NCC(=O)O)NC(=O)[C@H](Cc2ccc(O)cc2)NC(=O)[C@H](Cc2c[nH]c3ccccc23)NC(=O)[C@H](Cc2cnc[nH]2)NC1=O (Ac-FRRKA[Phe(4-Cl)][Nle(6-ylidene)]HWY[Nle(6-ylidene)]G-OH; staple (Z) 7-11) | 5.48 | 4.73 | 2.05 10^4/M/s | – | – | – | – | – | – | – | – | – | – | – | – | – | – | –
2 | C[C@H](NC(=O)[C@H](CCCCN)NC(=O)[C@H](CCCNC(=N)N)NC(=O)[C@H](CCCNC(=N)N)NC(=O)[C@@H](N)Cc1ccccc1)C(=O)N[C@@H](Cc1ccccc1)C(=O)N[C@H]1CCC/C=C\CCC[C@@H](C(=O)NCC(=O)O)NC(=O)[C@H](Cc2ccc(O)cc2)NC(=O)[C@H](Cc2c[nH]c3ccccc23)NC(=O)[C@H](Cc2c[nH]cn2)NC1=O (H-FRRKAF[Nle(6-ylidene)]HWY[Nle(6-ylidene)]G-OH; staple (Z) 7-11) | 5.15 | 4.43 | 1.43 10^4/M/s | 43.6 | 31.8 | 24.2 | 10500 | Active | Active | Active | Stable | Active | Active | Active | Active | 0.5 | Active | –
3 | CC(=O)N[C@@H](Cc1ccccc1)C(=O)N[C@@H](CCCNC(=N)N)C(=O)N[C@@H](CCCNC(=N)N)C(=O)N[C@@H](CCCCN)C(=O)N[C@@H](C)C(=O)N[C@@H](Cc1ccc(I)cc1)C(=O)N[C@H]1CCC/C=C\CCC[C@@H](C(=O)NCC(=O)O)NC(=O)[C@H](Cc2ccc(O)cc2)NC(=O)[C@H](Cc2c[nH]c3ccccc23)NC(=O)[C@H](Cc2cnc[nH]2)NC1=O (Ac-FRRKA[Phe(4-I)][Nle(6-ylidene)]HWY[Nle(6-ylidene)]G-OH; staple (Z) 7-11) | 5.39 | 4.28 | – | – | – | – | – | – | – | – | – | – | – | – | – | – | – | –
4 | CC(=O)N[C@@H](Cc1ccccc1)C(=O)N[C@@H](CCCNC(=N)N)C(=O)N[C@@H](CCCNC(=N)N)C(=O)N[C@@H](CCCCN)C(=O)N[C@@H](C)C(=O)N[C@@H](Cc1ccc(Br)cc1)C(=O)N[C@H]1CCC/C=C\CCC[C@@H](C(=O)NCC(=O)O)NC(=O)[C@H](Cc2ccc(O)cc2)NC(=O)[C@H](Cc2c[nH]c3ccccc23)NC(=O)[C@H](Cc2cnc[nH]2)NC1=O (Ac-FRRKA[Phe(4-Br)][Nle(6-ylidene)]HWY[Nle(6-ylidene)]G-OH; staple (Z) 7-11) | 5.40 | 4.47 | 1.9 10^4/M/s | – | – | – | – | – | – | – | – | – | – | – | – | – | – | –
5 | CC(C)C[C@H](NC(=O)[C@H](Cc1ccccc1)NC(=O)[C@H](C)NC(=O)[C@H](CCCCN)NC(=O)[C@H](CCCNC(=N)N)NC(=O)[C@H](CCCNC(=N)N)NC(=O)[C@@H](N)Cc1ccccc1)C(=O)N[C@@H](Cc1c[nH]cn1)C(=O)N[C@@H](Cc1c[nH]c2ccccc12)C(=O)N[C@@H](Cc1ccc(O)cc1)C(=O)N[C@H](C(=O)NCC(=O)O)[C@@H](C)O (H-FRRKAFLHWYTG-OH) | – | 3.57 | – | – | – | – | – | – | – | – | Unstable | – | – | – | – | – | – | –
6 | CC(=O)N[C@@H](Cc1ccccc1)C(=O)N[C@@H](CCCNC(=N)N)C(=O)N[C@@H](CCCNC(=N)N)C(=O)N[C@@H](CCCCN)C(=O)N[C@@H](C)C(=O)N[C@@H](Cc1ccc(F)cc1)C(=O)N[C@H]1CCC/C=C\CCC[C@@H](C(=O)NCC(=O)O)NC(=O)[C@H](Cc2ccc(O)cc2)NC(=O)[C@H](Cc2c[nH]c3ccccc23)NC(=O)[C@H](Cc2c[nH]cn2)NC1=O (Ac-FRRKA[Phe(4-F)][Nle(6-ylidene)]HWY[Nle(6-ylidene)]G-OH; staple (Z) 7-11) | 5.44 | 5.43 | 2.14 10^4/M/s | 6.3 | 12.2 | 58 | 45200 | Active | Active | Active | Stable | Active | Active | Active | Active | 23.5 | Active | Activity (B16-F10 [18]): Active; Activity (MCF7 [19]): Active; Activity (B16-F10 [20]): Active; Activity (B16-F10 [21]): Active; Activity (B16-F10 [22]): Active; inhibition (Tubulin (Homo sapiens) [23]): Active; Ka (Tubulin [24]): 46300 M⁻¹; Activity [25]: Non-Toxic; Activity (Tubulin (Homo sapiens) [26]): Active; inhibition (Tubulin (Homo sapiens) [27]): Active

Source: ChEMBL document CHEMBL5108073, “Evolution of Potential Antimitotic Stapled Peptides from Multiple Helical Peptide Stretches of the Tubulin Heterodimer Interface: Helix-Mimicking Stapled Peptide Tubulin Inhibitors” (J Med Chem, 2022)
